In assay [1] the target is T1, HIV-1 protease (Human immunodeficiency virus type 1 group M subtype B, UniProt P04585). As to the kind of experiment: biochemical. Conditions: read-out: HIV-1 FITC KI. In outline:
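Enzyme (40 nM stock) and substrate (200 μM stock) incubated with inhibitor, 24–48 two-fold serial concentrations, for 90 min at room temperature, then quenched with avidin beads. Nonlinear least-squares analysis gives Ki; a known-Ki inhibitor validates each run.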

Assay [2] has as its target T1, HIV-1 protease. Description: biochemical. Conditions: for inhibition at 0.123 µM: read-out: HIV-1 Protease % Inhib, dose 0.123 uM; for inhibition at 0.37 µM: read-out: HIV-1 Protease % Inhib, dose 0.370 uM; for inhibition at 1.1 µM: read-out: HIV-1 Protease % Inhib, dose 1.100 uM; for inhibition at 3.3 µM: read-out: HIV-1 Protease % Inhib, dose 3.300 uM; for inhibition at 10 µM: read-out: HIV-1 Protease % Inhib, dose 10.000 uM; for inhibition at 30 µM: read-out: HIV-1 Protease % Inhib, dose 30.000 uM. In outline:
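Percent inhibition derived from fluorescent cleavage product separated by filtration after streptavidin-bead capture of intact biotin/FITC substrate. Reaction: enzyme (10 μl, 0.1 μM stock) with substrate (20 μl, 0.2 μM stock) and compound, 1 h at room temperature in dark, pH 5.5 acetate buffer with 1.0 M NaCl and 0.05% NP-40.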

We go through 15 compounds from patent US5686486A, “4-hydroxy-benzopyran-2-ones and 4-hydroxy-cycloalkyl[b]pyran-2-ones useful to treat retroviral infections” (priority 1995, dated 1997).

Molecules are shown by their SMILES. “And” between values parts separate entries of the source, which are not always exact repeats. Equal values may be shown once.

Turning to `Cc1cncc(S(=O)(=O)Nc2cccc(C(c3c(O)c4c(oc3=O)CCCCCC4)C3CC3)c2)c1` (stereo not shown) [Example 315, N-[3-[Cyclopropyl(5,6,7,8,9,10-hexahydro4-hydroxy-2-oxo-2H-cycloocta[b]pyran-3-yl)methyl]phenyl]-5-methyl-3-pyridinesulfonamide], the Ki on HIV-1 protease [1] was 2.58 nM. Further, on HIV-1 protease [2], the inhibition at 0.123 µM came to 80.7%, the inhibition at 0.37 µM stood at 94.7%, the inhibition at 1.1 µM was 91.9% and the inhibition at 3.3 µM turned out to be 95.2%. For the same compound, at HIV-1 protease [2], the inhibition at 10 µM came to 86.7% and the inhibition at 30 µM came to 81.4%.

As to `C=CS(=O)(=O)Nc1cccc(C(c2c(O)c3c(oc2=O)CCCCCC3)C2CC2)c1` (stereo not shown) [Example 316, N-[3-[Cycloproopyl(5,6,7,8,9,10-hexahydro4-hydroxy-2-oxo-2H-cycloocta[b]pyran-3-yl)methyl]phenyl]-ethenesulfonamide], the Ki on HIV-1 protease [1] turned out to be 18 nM. At HIV-1 protease [2], the inhibition at 0.37 µM was determined as 31.2%, the inhibition at 1.1 µM was determined as 77.8%, the inhibition at 3.3 µM is 98.1% and the inhibition at 10 µM is 103%. Besides, on HIV-1 protease [2], the inhibition at 30 µM was found to be 111%.

Take `CCS(=O)(=O)Nc1cccc(C(c2c(O)c3c(oc2=O)CCCCCC3)C2CC2)c1` (stereo not shown) [Example 318, N-[3-[Cyclopropyl(5,6,7,8,9,10-hexahydro-4-hydroxy-2-oxo-2H-cycloocta[b]pyran-3-yl)methyl]phenyl]-ethanesulfonamide]: on HIV-1 protease [1], the Ki was 9.9 nM. For the same compound, at HIV-1 protease [2], the inhibition at 0.123 µM was 28.3%, the inhibition at 0.37 µM worked out at 45.1%, the inhibition at 1.1 µM was found to be 84.2% and the inhibition at 3.3 µM is 99.7%. Besides, at HIV-1 protease [2], the inhibition at 10 µM came out at 97.5% and the inhibition at 30 µM came to 106%.

On to `O=c1oc2c(c(O)c1C(c1cccc(NS(=O)(=O)c3ccccc3)c1)C1CC1)CCCCCC2` (stereo not shown) [Example 319, N-[3-[Cyclopropyl(5,6,7,8,9,10-hexahydro-4-hydroxy-2-oxo-2H-cycloocta[b]pyran-3-yl)methyl]phenyl]-benzenesulfonamide], for which the Ki on HIV-1 protease [1] was 4.3 nM and 3.3 nM and 2.1 nM. Besides, at HIV-1 protease [2], the inhibition at 0.123 µM was 67%, the inhibition at 0.37 µM was 84.2%, the inhibition at 1.1 µM stood at 93.1% and the inhibition at 3.3 µM came to 94.3%. On HIV-1 protease [2], the inhibition at 10 µM worked out at 102% and the inhibition at 30 µM is 101%.

On to `O=c1oc2c(c(O)c1C(c1cccc(NS(=O)(=O)C=Cc3ccccc3)c1)C1CC1)CCCCCC2` (stereo not shown) [Example 320, N-[3-[Cyclopropyl(5,6,7,8,9,10-hexahydro-4-hydroxy-2-oxo-2H-cycloocta[b]pyran-3-yl)methyl]phenyl]-2-phenyl-ethenesulfonamide], for which the Ki at HIV-1 protease [1] was 3.8 nM and 2.1 nM. Further, on HIV-1 protease [2], the inhibition at 0.123 µM came out at 66.4%, the inhibition at 0.37 µM is 78.5%, the inhibition at 1.1 µM worked out at 98.2% and the inhibition at 3.3 µM is 102%. Also, on HIV-1 protease [2], the inhibition at 10 µM came out at 99.3% and the inhibition at 30 µM was 99%.

`O=c1oc2c(c(O)c1C(c1cccc(NS(=O)(=O)Cc3ccccc3)c1)C1CC1)CCCCCC2` (stereo not shown) [Example 321, N-[3-[Cyclopropyl(5,6,7,8,9,10-hexahydro-4-hydroxy-2-oxo-2H-cycloocta[b]pyran-3-yl)methyl]phenyl]-benzenemethanesulfonamide]: the Ki at HIV-1 protease [1] amounted to 13.2 nM. Further, on HIV-1 protease [2], the inhibition at 0.123 µM is 22.2%, the inhibition at 0.37 µM is 62.1%, the inhibition at 1.1 µM worked out at 100% and the inhibition at 3.3 µM turned out to be 113%. Besides, on HIV-1 protease [2], the inhibition at 10 µM worked out at 119% and the inhibition at 30 µM was determined as 118%.

Regarding `CCCS(=O)(=O)Nc1cccc(C(c2c(O)c3c(oc2=O)CCCCCC3)C2CC2)c1` (stereo not shown) [Example 324, N-[3-[Cyclopropyl(5,6,7,8,9,10-hexahydro-4-hydroxy-2-oxo-2H-cycloocta[b]pyran-3-yl)methyl]phenyl]-1-propanesulfonamide], on HIV-1 protease [1], the Ki was 4 nM. On HIV-1 protease [2], the inhibition at 0.123 µM was determined as 44.3%, the inhibition at 0.37 µM came out at 87.5%, the inhibition at 1.1 µM is 103% and the inhibition at 3.3 µM was found to be 108%. Moreover, on HIV-1 protease [2], the inhibition at 10 µM was 116% and the inhibition at 30 µM worked out at 117%.

Turning to `O=C1c2ccccc2C(=O)N1CCS(=O)(=O)Nc1cccc(C(c2c(O)c3c(oc2=O)CCCCCC3)C2CC2)c1` (stereo not shown) [Example 327, N-[3-[Cyclopropyl(5,6,7,8,9,10-hexahydro-4-hydroxy-2-oxo-2H-cycloocta[b]pyran-3-yl)methyl]phenyl]-1,3-dihydro-1,3-dioxo-2H-isoindole-2-ethanesulfonamide], the Ki at HIV-1 protease [1] was 13.5 nM. Further, at HIV-1 protease [2], the inhibition at 0.123 µM worked out at 34.2%, the inhibition at 0.37 µM turned out to be 68.2%, the inhibition at 1.1 µM is 94.8% and the inhibition at 3.3 µM stood at 105%. On HIV-1 protease [2], the inhibition at 10 µM is 106% and the inhibition at 30 µM amounted to 113%.

In the case of `O=c1oc2c(c(O)c1C(c1cccc(NS(=O)(=O)CCCCl)c1)C1CC1)CCCCCC2` (stereo not shown) [Example 331, 3-Chloro-N-[3-[cyclopropyl(5,6,7,8,9,10-hexahydro-4-hydroxy-2-oxo-2H-cycloocta[b]pyran-3-yl)methyl]phenyl]-1-propanesulfonamide], at HIV-1 protease [1], the Ki turned out to be 4.8 nM. At HIV-1 protease [2], the inhibition at 0.123 µM is 66.4%, the inhibition at 0.37 µM is 86.9%, the inhibition at 1.1 µM amounted to 99.2% and the inhibition at 3.3 µM is 119%. Further, on HIV-1 protease [2], the inhibition at 10 µM was found to be 121% and the inhibition at 30 µM was 105%.

With `O=c1oc2c(c(O)c1C(c1cccc(NS(=O)(=O)c3cc(C(F)(F)F)cc(C(F)(F)F)c3)c1)C1CC1)CCCCCC2` (stereo not shown) [Example 332, N-[3-[Cyclopropyl(5,6,7,8,9,10-hexahydro-4-hydroxy-2-oxo-2H-cycloocta[b]pyran-3-yl)methyl]phenyl]-3,5-bis(trifluoromethyl)-benzenesulfonamide], the Ki on HIV-1 protease [1] was 47 nM. Moreover, on HIV-1 protease [2], the inhibition at 0.123 µM was 23.1%, the inhibition at 0.37 µM is 39.3%, the inhibition at 1.1 µM was 71.5% and the inhibition at 3.3 µM is 94%. Also, on HIV-1 protease [2], the inhibition at 10 µM worked out at 109% and the inhibition at 30 µM amounted to 115%.

As to `CC1(C)C2CCC1(CS(=O)(=O)Nc1cccc(C(c3c(O)c4c(oc3=O)CCCCCC4)C3CC3)c1)C(=O)C2` (stereo not shown) [Example 333, N-[3-[Cyclopropyl(5,6,7,8,9,10-hexahydro-4-hydroxy-2-oxo-2H-cycloocta[b]pyran-3-yl)methyl]phenyl]-7,7-dimethyl-2-oxo-bicyclo[2.2.1]heptane-1-methanesulfonamide], the Ki at HIV-1 protease [1] amounted to 104 nM. Moreover, at HIV-1 protease [2], the inhibition at 0.37 µM was determined as 28.3%, the inhibition at 1.1 µM worked out at 62.2%, the inhibition at 3.3 µM turned out to be 82% and the inhibition at 10 µM is 102%. Also, the inhibition at 30 µM on HIV-1 protease [2] came to 110%.

Turning to `COc1cccc(Br)c1S(=O)(=O)Nc1cccc(C(c2c(O)c3c(oc2=O)CCCCCC3)C2CC2)c1` (stereo not shown) [Example 337, 2-Bromo-N-[3-[cyclopropyl(5,6,7,8,9,10-hexahydro-4-hydroxy-2-oxo-2H-cycloocta[b]pyran-3-yl)methyl]phenyl]-6-methoxy-benzenesulfonamide], the Ki on HIV-1 protease [1] came out at 37.9 nM. Moreover, on HIV-1 protease [2], the inhibition at 0.123 µM amounted to 10.1%, the inhibition at 0.37 µM was 47.9%, the inhibition at 1.1 µM stood at 93.6% and the inhibition at 3.3 µM is 116%. Besides, at HIV-1 protease [2], the inhibition at 10 µM came out at 111% and the inhibition at 30 µM worked out at 112%.

`Cc1noc(C)c1S(=O)(=O)Nc1cccc(C(c2c(O)c3c(oc2=O)CCCCCC3)C2CC2)c1` (stereo not shown) [Example 338, N-[3-[Cyclopropyl(5,6,7,8,9,10-hexahydro-4-hydroxy-2-oxo-2H-cycloocta[b]pyran-3-yl)methyl]phenyl]-3,5-dimethyl-4-isoxazolesulfonamide]: at HIV-1 protease [1], the Ki was 9.8 nM. Besides, at HIV-1 protease [2], the inhibition at 0.123 µM amounted to 39.1%, the inhibition at 0.37 µM stood at 80.1%, the inhibition at 1.1 µM stood at 86.3% and the inhibition at 3.3 µM was found to be 96.8%. At HIV-1 protease [2], the inhibition at 10 µM came out at 102% and the inhibition at 30 µM was found to be 100%.

For the compound `O=c1oc2c(c(O)c1C(c1cccc(NS(=O)(=O)c3cccc4nsnc34)c1)C1CC1)CCCCCC2` (stereo not shown) [Example 340, N-[3-[Cyclopropyl(5,6,7,8,9,10-hexahydro-4-hydroxy-2-oxo-2H-cycloocta[b]pyran-3-yl)methyl]phenyl]-2,1,3-benzothiadiazole-4-sulfonamide], the Ki on HIV-1 protease [1] worked out at 1.9 nM. Further, at HIV-1 protease [2], the inhibition at 0.123 µM amounted to 77.8%, the inhibition at 0.37 µM was found to be 93.2%, the inhibition at 1.1 µM is 90.9% and the inhibition at 3.3 µM turned out to be 96.5%. At HIV-1 protease [2], the inhibition at 10 µM is 101% and the inhibition at 30 µM came to 96.5%.

Take `CCc1ccc(S(=O)(=O)Nc2cccc(C(c3c(O)c4c(oc3=O)CCCCCC4)C3CC3)c2)cc1` (stereo not shown) [Example 341, N-[3-[Cyclopropyl(5,6,7,8,9,10-hexahydro-4-hydroxy-2-oxo-2H-cycloocta[b]pyran-3-yl)methyl]phenyl]-4-ethyl-benzenesulfonamide]: the Ki at HIV-1 protease [1] turned out to be 5 nM. Also, on HIV-1 protease [2], the inhibition at 0.123 µM is 59.4%, the inhibition at 0.37 µM is 92.8%, the inhibition at 1.1 µM worked out at 110% and the inhibition at 3.3 µM came out at 107%. Also, on HIV-1 protease [2], the inhibition at 10 µM stood at 120% and the inhibition at 30 µM turned out to be 122%.
